“Also recorded” adds a separate entry of the source. Square brackets hold non-standard residues; d marks the D form. Ends that are not written are not given here. βAla = NCCC(=O)O
Columns and labels:
cerebellar granule cells = assay: Survival of cerebellar microexplants under glutamate and 3-NP toxicity; assay type: cell-based, Wistar rats; conditions: for block of NNZ-4921 neuronal survival-promoting activity: glutamate and 3-NP toxicity, 48 hours, eotaxin-3 10 and 100 nM, AMD3100 300 nM, co-administered with NNZ-4921
Description: Glass coverslips were obtained from New Zealand BioLabs, size 18 mm×18 mm. The coverslips were placed in a 150 mm Petri dish, at 8 cover slips per dish. Both sides of the coverslips were soaked and washed in absolute ethanol. The ethanol was discarded, and autoclaved MilliQ® was added to rinse both sides of coverslips. The water was then discarded, and the coverslips were air dried under the laminar flow.
Poly-D-lysine (PDL) was obtained from Sigma (P7280, lyophilized powder, γ-irradiated, average mol wt 30,000-70,000, cell culture tested). This was diluted with autoclaved PBS to make a stock solution of 1 mg/ml. The stock solution was divided into aliquots of 500 μl/tube and stored at −20° C.
For experiments, the stock solution of PDL was diluted with PBS 1:10 to make working solution of with a final concentration of 100 μg/ml. Approximately 100 μl of the PDL working solution was added to the coverslips and this was incubated at 34° C. for 2 hours (minimum) to overnight.
Next, more than 10 ml autoclaved MilliQ® was added into each Petri dish and the PDL-coated coverslips were rinsed. The coverslips were then transferred to 6 well culture plates. After air drying, the plates were wrapped in foil and stored at 4° C. until use. Storage was possible for up to 2 weeks.
Rat pups were used for this experiment (Wistar rats), either P3/4 or P7/8.
For extraction of P3/4 cerebellar cortices, 0.5 ml of ice-cold PBS/0.65% D(+)-glucose buffer was placed into a Petri dish and the tissue was placed into this solution. For extraction of P7/8 cerebellar cortices, 1.0 ml of ice-cold PBS/0.65% D(+)-glucose buffer was placed into a Petri dish and the tissue was placed into this solution.
The laminated cerebellar cortex was removed surgically and stored immediately in ice-cold PBS/0.65% D(+)-glucose buffer using the amounts as noted above. The cortex was then transferred to a Petri dish, and the meninges were removed from the cerebellar. The tissue was sliced by scissors, and passed once (P3/P4 pups) or twice (P7/P8 pups) through a 23-gauge sized needle attached to a 1 cc syringe to obtain uniformly sized microexplants. This was set aside in a Petri dish.
Next, the tissue was transferred into a 15 ml Falcon tube and centrifuged for 2 minutes at 350 rpm, at 4° C. The PBS/Glu(+) buffer was carefully discarded using a pipette. The pellet was resuspended in cold Neurobasal® medium (Invitrogen), at 1 ml per pup. This was centrifuged for 2 minutes at 350 rpm (60XG), at 4° C.
The medium was discarded and the pellet was resuspended in warm Neurobasal® medium, at 0.5 ml per P3/4 pup and 1.5 ml per P7/8 pup. This was then seeded on PDL-coated cover slips in 6 well plates at a volume of 40-45 μl per coverslip.
The coverslips were incubated at 34° C., in 5% CO2, with 100% humidity for 45 minutes to 1.5 hours to allow adherence. Then, 1 ml of Neurobasal® medium was added per well and the microexplants were checked under a microscope for adherence.
The toxins 3-nitropropionic acid and glutamate were prepared at 100× concentrations. For 50 mM 3-nitropropionic acid (Sigma), the stock solution was titrated with NaOH to a pH value of 7-7.2. For 50 mM L-glutamate, this was dissolved under heat (hot water).
As a negative control, 10 μl of 3-nitropropionic acid and 10 μl of glutamate was administered (4 wells). As a positive control, 20 μl of PBS was administered to normoxic microexplants without any toxins (4 wells). […]

human W9-hESCs = assay type: cell-based; conditions: 300 nM AMD3100, normoxic and OGD conditions
Description: Experiments with human embryonic stem cells (hESC) were carried out in accordance with the guidelines and regulations of the NHMRC and with the approval of the Austin Health Human Research Ethics Committee (Approval number H2008/03194), and University of Melbourne Human Research Ethics Committee (Approval number 0605017). H9 (WA-09, WiCell) cell lines were grown as previously described (Dottori & Pera, 2007).
Briefly, hESC were cultured on mitomycin-C treated mouse embryonic fibroblasts (MEFs) in hESC medium consisting of high-glucose Dulbecco's Modified Eagle Medium (DMEM) without sodium pyruvate, supplemented with 1% insulin/transferrin/selenium, 0.1 mM β-mercaptoethanol, 1% nonessential amino acids (NEAA), 2 mM glutamine, 25 U/ml penicillin, 25 μg/ml streptomycin (all from Invitrogen) and 20% fetal calf serum (FCS) (Hyclone).
Alternatively, hESC were cultured on mitomycin-C treated human foreskin fibroblasts (HFF; ATCC, CRL-2097) in KSR media consisting of DMEM/nutrient mixture F-12, supplemented with 0.1 mM […], 1% nonessential amino acids (NEAA), 2 mM glutamine, 25 U/ml penicillin, 25 μg/ml streptomycin and 20% knockout serum replacement (all from Invitrogen).
All cells were cultured at 37° C. in 5% CO2 with 100% humidity. Colonies were mechanically dissected every 7 days (subcultivated or passaged) and transferred to freshly prepared MEFs or HFFs. Media was changed every second day.
Neuronal differentiation was achieved using the noggin induction method described for mouse neurospheres as adapted by Dottori for human neurospheres (Dottori & Pera, 2007). The colonies were maintained at 37° C., with 5% CO2 in hESC medium supplemented with 500 ng/ml of Noggin for 14 days while replacing Noggin every other day.
At this point, the cells were washed with PBS and the colonies were again mechanically dissociated, but this time the central (differentiated) part of the colony was also cut into smaller pieces using a 26-gauge needle. The pieces were transferred to individual wells in a low adherent 96-well plate containing Neurobasal®A (NBM) (Invitrogen) supplemented with 1× X B-27® (Invitrogen) and 1× N-2 (Invitrogen) 20 ng/ml human recombinant EGF and 20 ng/ml human recombinant bFGF (Pharmacia). Media was changed every 2 to 3 days to allow neurosphere formation over 2 weeks.
In order to facilitate neuronal differentiation, neurospheres were again separated into smaller pieces under a dissection microscope, and three to four pieces were transferred to each well of a 96-well plate. Prior to this transfer, the plate was pre-coated with poly-D-lysine (10 μg/ml in PBS), washed in PBS, recoated with mouse laminin (5 μg/ml in PBS), and washed again. The cells were then grown for 11 days (with media changed every two days) in NBM lacking growth factors prior to induction of injury and assessment of hypothermia.
On the day of experiments, the medium was changed to NBM+N2 containing a B27 preparation lacking the usual antioxidants (Invitrogen; 10889-038) to eliminate their confounding effects (NBM-AO).
To maintain isoosmotic pressure conditions, 25 mM 2-deoxy-D-glucose was added to NBM-AO medium and equilibrated for 30 minutes at room temperature before the initial media change as described above. […] Culture supernatant was removed after this 4 hour period and stored at 4° C. until analysed for lactate dehydrogenase (LDH) activity.
The media was replaced with fresh NBM-AO and the cells were incubated for a further 20 hours containing drug, before again measuring LDH. Oxidative stress was induced by adding 50 μM fresh H2O2 (Sigma, H1009) to the growth factor negative NBM on initiation of the experiment with continued culture for 4 hours when LDH was measured and NBM-AO without H2O2 was returned to the culture which was maintained for a further 20 hours before again measuring LDH.

[1] = molecular target: T1, homodimeric CXCR4 receptor (Homo sapiens, UniProt P61073); assay: 125I-SDF-1 displacement binding study (CEREP); conditions: recombinant homodimeric CXCR4 expressing HEK293 cells; unlabelled peptide in competition
T1 construct: host or cells: HEK293
Description: This was determined by radioactive ^125I-SDF-1 displacement studies using CXCR4 homodimeric receptors and unlabelled NNZ-4921 and NRP2945 in competition.

neuronal stem cells = conditions: cited from earlier work
[2] = molecular target: T2, homodimeric CXCR4 receptor (recombinant, expressed in HEK293 cells) (UniProt P61073 1-352, limits assumed); assay: 125I-SDF-1 displacement on HEK293 cells expressing recombinant homodimeric CXCR4 (CEREP)
T2 construct: whole, on cells; also called CXCR4 homodimeric receptors; homodimeric CXCR4 receptor complex
T2 sequence (P61073 whole entry): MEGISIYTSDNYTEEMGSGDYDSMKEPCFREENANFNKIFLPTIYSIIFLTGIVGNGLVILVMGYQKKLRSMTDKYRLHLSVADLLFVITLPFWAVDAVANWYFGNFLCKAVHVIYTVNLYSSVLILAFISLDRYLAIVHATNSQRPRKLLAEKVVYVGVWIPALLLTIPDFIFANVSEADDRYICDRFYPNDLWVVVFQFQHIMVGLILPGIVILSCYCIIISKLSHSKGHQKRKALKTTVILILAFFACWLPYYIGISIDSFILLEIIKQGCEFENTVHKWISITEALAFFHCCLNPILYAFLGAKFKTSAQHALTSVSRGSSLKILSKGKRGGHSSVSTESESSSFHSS

T1 sequence (P61073 whole entry): as above

c1cc(CN2CCCNCCNCCCNCC2)ccc1CN1CCCNCCNCCCNCC1 [AMD3100, reference compound]
block of NNZ-4921 neuronal survival-promoting activity (cerebellar granule cells): completely block | toxicity on W9-hESCs (human W9-hESCs): did not show any toxicity

GRRAAPGR-β-Ala-GG (GRRAAPGR[βAla]GG) [NRP2983, synthetic 11-mer peptidomimetic closely related to NRP2945]
promotion of survival of cultivated cerebellar cells (cerebellar granule cells; 1fM NRP2983, oxidatively stressed cerebellar microexplants): 70%

GRRAAPGRAGG [NNZ-4921]
activity of NNZ-4921 in reducing cell death in presence of eotaxin-3 in combination with AMD3100 (cerebellar granule cells; 10 fM or 100 fM NNZ-4921): completely blocked | displacement of 125I-SDF-1 from homodimeric CXCR4 receptor [1]: not able to displace the radioactive ligand SDF-1

SDF-1: natural ligand for the CXCR4 receptor
EC50 values for chemoattraction (neuronal stem cells; SDF-1): lower nanomolar range | minimal concentration required to chemoattract neuronal stem cells (neuronal stem cells; Xu and Heilshorn, 2012): 9 nM

eotaxin-3: human recombinant eotaxin-3 (Pharmaco), ligand of the CCR3 receptor, partial agonist
block of NNZ-4921 neuronal survival-promoting activity (cerebellar granule cells): abrogation of the neuroprotective effect; also recorded: completely blocked | effect of eotaxin-3 alone on neuronal survival (cerebellar granule cells; without NNZ-4921, normoxic or oxidative/excitotoxic stress conditions): no toxic effect; also recorded: no effect on the overall neuronal survival rate

GRRAAPGRAGG [NNZ-4921]
binding result [2]: no binding

From patent US20160031937A1, “NEURAL REGENERATION PEPTIDES AND USES THEREFOR” (CURONZ HOLDINGS COMPANY LIMITED, priority 2013, published 2016)
